Columns and labels:
[1] = tested on: Brevibacterium monooxygenase 2 (ORF 2.4); test: Spectrophotometric monooxygenase assay (NADPH oxidation at 340 nm), substrate specificity for cyclic ketones, monooxygenase 2; assay type: biochemical, Brevibacterium sp HCU; settings: NADPH 0.3 mM, pH7, 30° C., activities below 2.0 could reflect contaminants
Method: (§1) The cyclohexanone monooxygenase activity of each overexpressed enzyme was assayed spectrophotometrically at 340 nm by monitoring the oxidation of NADPH. In a spectrophotometer cuvette containing 50 mM Tris-HCl, 50 mM K Acetate pH7 at 30° C. NADPH 0.3 mM and 20-50 μg of homogenous monooxygenase the reaction was initiated by the addition of 1 mM of cyclohexanone. Substrate specificity of each enzyme was tested with other cyclic ketones added at 0.1 or 0.5 mM.
(§2) Expression of the His6-tagged proteins was done by growing the cells carrying the expression plasmids in 1 l of Luria-Bertani broth (Miller 1972) containing Ampicillin (100 μg/ml) and tetracyclin (10 μg/ml) at 28° C. Riboflavin (1 μg/ml) was also added to the medium since both monooxygenases are flavoproteins. When the absortion reached 0.5 at 600 nm, 1 mM isopropy-thio-b-galactoside (IPTG) was added to the culture. Cells were harvested 1.5 hr later, resuspended in 2 ml of 300 mM NaCl 5% glycerol 20 mM Tris-HCl pH 8.0 (Buffer A) containing 10 mM EDTA and 100 μg lysozyme and disrupted by three freeze/thaw cycles. Nucleic acids were digested by addition of MgCl2 (20 mM) RNAseA and DNAse I (10 μg each). The particulate fraction was removed by centrifugation at 14,000 RPM and the supernatant was mixed for 1 hr at 4° C. with 100 μl of a metal chelation agarose (Ni-NTA Superflow Qiagen, Valencia, Calif.) saturated with Ni(II) and equilibrated Buffer A containing 5 mM imidazole. The resin was washed bathchwise with 10 ml each of Buffer A containing 5, 10, 15, 20, 40, 80, 150 and 300 mM respectively. The bound proteins were eluted between 80 and 150 mM imidazole. Eluted proteins were concentrated by ultrafiltration with a Centricon device (cut off 10,000 Da, Amicon) and the buffer replaced by Buffer A. Homogeneity of the overexpressed proteins is shown in FIG. 3, which show a gel electrophoresis separation of proteins from control E. coli (lane 1), E. coli expressing ORF 1.3 (lane 2) and E. coli expressing ORF 2.4 (lane 3).
(§3) Each monooxygenase oxidized cyclohexanone as measured spectrophoto-metrically by monitoring the oxidation of NADPH at 340 nm. No activity was observed when NADPH was replaced by NADH. The product of the cyclohexanone oxidation was confirmed to be caprolactone by GC-MS analysis. Monooxygenase 1 and 2 have different substrate specificity relative to the number of carbon atoms, the oxidation or the substitution of the ring.

[2] = tested on: Brevibacterium monooxygenase 1 (ORF 1.3); test: Spectrophotometric monooxygenase assay (NADPH oxidation at 340 nm), substrate specificity for cyclic ketones, monooxygenase 1; assay type: biochemical, Brevibacterium sp HCU; settings: NADPH 0.3 mM, pH7, 30° C., activities below 2.0 could reflect contaminants
Method: as §1, §2, §3

[3] = tested on: E. coli strains carrying plasmids pPCB1 and pPCB2 that express the monooxygenase ORF 1.3 and ORF 2.4; test: Conversion of cyclohexanone into caprolactone by cell suspensions, GC-MS; assay type: cell-based; settings: 100 ppm cyclohexanone, M9 medium with 0.2% glucose, IPTG-induced cells (FIG. 5)
Method: Confirmation of the oxidation of cyclohexanone into caprolactone was determined by GC-Mass Spectrometry on a HP 5890 Gas Chromatograph with HP 5971 mass selective detector equipped with a HP-1 capillary column (Hewlett Packard). Prior to analysis, samples were acidified to pH 3 by HCl, extracted by dichloromethane three times, dried with MgSO4 and filtered.
Twenty ml cultures of E. coli strains carrying plasmids pPCB1 and pPCB2 that express the monooxygenase ORF 1.3 and ORF 2.4 respectively were grown at 30° C. in LB medium containing Ampicillin (100 μg/ml) and tetracyclin (10 μg/ml). When the absorbance reached 0.1 at 600 nm, 1 mM IPTG was added to the culture to induce the monooxygenases. After 1 hr, the cultures were chilled and washed twice with M9 mineral medium (Sambrook, J., Fritsch, E. F. and Maniatis, T. Molecular Cloning: A Laboratory Manual, Second Edition, Cold Spring Harbor Laboratory Press, Cold Spring Harbor (1989)) and resuspended in 2 ml of the same medium containing 0.2% glucose and 100 ppm of cyclohexanone. After one hr the cells were removed from the culture by centrifugation and supernatant was analyzed by GC-MS as described in the General Methods. The GC-MS analysis indicated the disappearance of cyclohexanone and the appearance of caprolactone. […]

Row | SMILES | Mono 2 rate ([1]; substrate 0.1 mM) | Mono 2 rate ([1]; substrate 0.5 mM) | Mono 1 rate ([2]; substrate 0.1 mM) | Mono 1 rate ([2]; substrate 0.5 mM) | time until all cyclohexanone was oxidized [3]
1 | O=C1CCCCCC1 [cycloheptanone] | 3.9 min⁻¹ | 8.6 min⁻¹ | 4.5 min⁻¹ | 18 min⁻¹ | –
2 | O=C1CCCCCCCCCC1 [cycloundecanone] | 0.6 min⁻¹ | 0.9 min⁻¹ | 1.2 min⁻¹ | 1.4 min⁻¹ | –
3 | O=C1CCC(=O)CC1 [1,4-cyclohexanedione] | 53 min⁻¹ | 88 min⁻¹ | 130 min⁻¹ | 210 min⁻¹ | –
4 | O=C1CCCCC1=O [1,2-cyclohexanedione] | 7.6 min⁻¹ | 34 min⁻¹ | 9 min⁻¹ | 52 min⁻¹ | –
5 | O=C1CCCCCCCCCCC1 [cyclododecanone] | 1.2 min⁻¹ | 1.8 min⁻¹ | 1 min⁻¹ | 0.9 min⁻¹ | –
6 | O=C1CCCCC1C1=CCCCC1 (centres unmarked) [2-(cyclohex-1-enyl)cyclohexanone] | – | 2.4 min⁻¹ | 160 min⁻¹ | 260 min⁻¹ | –
7 | O=C1CCCCC1 [cyclohexanone] | 100 min⁻¹ | 100 min⁻¹ | 160 min⁻¹ | 290 min⁻¹ | about 75 min
8 | O=C1CCCCCCCCC1 [cyclodecanone] | 1.8 min⁻¹ | 1.2 min⁻¹ | – | 1 min⁻¹ | –
9 | O=C1CCC1 [cyclobutanone] | 92 min⁻¹ | 96 min⁻¹ | 235 min⁻¹ | 171 min⁻¹ | –
10 | CC1CCCCC1=O (centres unmarked) [2-methylcyclohexanone] | 37 min⁻¹ | 97 min⁻¹ | 250 min⁻¹ | 260 min⁻¹ | –
11 | O=C1CCCC(=O)C1 [1,3-cyclohexanedione] | 18 min⁻¹ | 60 min⁻¹ | 0.3 min⁻¹ | 1.2 min⁻¹ | –
12 | O=C1CCCCCCC1 [cyclooctanone] | 1.3 min⁻¹ | 1.3 min⁻¹ | 0.9 min⁻¹ | 0.4 min⁻¹ | –
13 | CC1CCCC1=O (centres unmarked) [2-methylcyclopentanone] | 120 min⁻¹ | 110 min⁻¹ | 40 min⁻¹ | 110 min⁻¹ | –
14 | O=C1CCCC1 [cyclopentanone] | 90 min⁻¹ | 120 min⁻¹ | 1.2 min⁻¹ | 7.0 min⁻¹ | –
15 | O=C1C=CCCC1 [cyclohex-2-ene-1-one] | 64 min⁻¹ | 80 min⁻¹ | 2.3 min⁻¹ | 1.9 min⁻¹ | –

Reference: patent US6790645B2, “Oxidation of a cyclohexanone derivative using a brevibacterium cyclohexanone monooxygenase” (E. I. du Pont de Nemours and Company, priority 1999, dated 2004)
